According to the supplement of paper PMC10307832:

Experiments:
Experiment in all cases: relative viability (nuclei count vs DMSO), 5 days (fraction); higher = more cells survive
Doxorubicin + Foretinib = compound: COc1cccc2c1C(=O)c1c(O)c3c(c(O)c1C2=O)C[C@@](O)(C(=O)CO)C[C@@H]3O[C@H]1C[C@H](N)[C@H](O)[C@H](C)O1 [Doxorubicin] + COc1cc2c(Oc3ccc(NC(=O)C4(C(=O)Nc5ccc(F)cc5)CC4)cc3F)ccnc2cc1OCCCN1CCOCC1 [Foretinib] (partner 0.25 µM)
How it was run: (§1)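 For relative viability, nuclei counts in treated wells were divided by those in vehicle wells. Lung cancer cell lines had been pin-tool dosed in 1536-well plates the day after seeding and cultured for 5 days, then fixed and stained in one step (final 0.05% Triton X-100, 1% formaldehyde, 1 ug/ml Hoechst) and imaged at 4×. Doses were one drug alone or a fixed anchor-drug dose plus five library-drug doses (not always all listed) in √10 steps, and values are duplicate-plate medians.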

Doxorubicin + Linsitinib = compound: COc1cccc2c1C(=O)c1c(O)c3c(c(O)c1C2=O)C[C@@](O)(C(=O)CO)C[C@@H]3O[C@H]1C[C@H](N)[C@H](O)[C@H](C)O1 [Doxorubicin] + C[C@]1(O)C[C@@H](c2nc(-c3ccc4ccc(-c5ccccc5)nc4c3)c3c(N)nccn32)C1 [Linsitinib] (partner 1 µM)
How it was run: as §1

BAY61-3606 + Tozasertib = compound: COC1=C(C=C(C=C1)C2=CC3=NC=CN3C(=N2)NC4=C(C=CC=N4)C(=O)N)OC [BAY61-3606] + Cc1cc(Nc2cc(N3CCN(C)CC3)nc(Sc3ccc(NC(=O)C4CC4)cc3)n2)n[nH]1 [Tozasertib] (partner 0.1 µM)
How it was run: as §1

Doxorubicin + Bortezomib = compound: COc1cccc2c1C(=O)c1c(O)c3c(c(O)c1C2=O)C[C@@](O)(C(=O)CO)C[C@@H]3O[C@H]1C[C@H](N)[C@H](O)[C@H](C)O1 [Doxorubicin] + CC(C)C[C@H](NC(=O)[C@H](Cc1ccccc1)NC(=O)c1cnccn1)B(O)O [Bortezomib] (partner 0.002 µM)
How it was run: as §1

Row | Cell Line | relative viability (Doxorubicin + Foretinib; first compound 0.001 µM) | relative viability (Doxorubicin + Foretinib; first compound 0.003162 µM) | relative viability (Doxorubicin + Foretinib; first compound 0.01 µM) | relative viability (Doxorubicin + Foretinib; first compound 0.03162 µM) | relative viability (Doxorubicin + Foretinib; first compound 0.1 µM) | relative viability (Doxorubicin + Linsitinib; first compound 0.001 µM) | relative viability (Doxorubicin + Linsitinib; first compound 0.003162 µM) | relative viability (Doxorubicin + Linsitinib; first compound 0.01 µM) | relative viability (Doxorubicin + Linsitinib; first compound 0.03162 µM) | relative viability (Doxorubicin + Linsitinib; first compound 0.1 µM) | relative viability (BAY61-3606 + Tozasertib; first compound 0.02 µM) | relative viability (BAY61-3606 + Tozasertib; first compound 0.06325 µM) | relative viability (BAY61-3606 + Tozasertib; first compound 0.2 µM) | relative viability (BAY61-3606 + Tozasertib; first compound 0.6325 µM) | relative viability (BAY61-3606 + Tozasertib; first compound 2 µM) | relative viability (Doxorubicin + Bortezomib; first compound 0.003162 µM) | relative viability (Doxorubicin + Bortezomib; first compound 0.01 µM) | relative viability (Doxorubicin + Bortezomib; first compound 0.03162 µM) | relative viability (Doxorubicin + Bortezomib; first compound 0.1 µM) | relative viability (Doxorubicin + Bortezomib; first compound 0.001 µM)
1 | NCI-H596 | 0.981 | 1.04 | 0.976 | 0.619 | 0.964 | 1.01 | 1.12 | 1.09 | 1.01 | 0.992 | 1.2 | 0.941 | 0.746 | 0.844 | 0.435 | 1.26 | 1.01 | 0.928 | 0.972 | 
2 | EPLC-272H | 0.899 | 0.67 | 0.753 | 0.517 | 0.78 | 0.936 | 1.45 | 1.4 | 1.18 | 1.13 | 0.262 | 0.247 | 0.362 | 0.242 | 0.157 | 0.98 | 0.897 | 1.05 | 0.931 | 0.827
3 | HCC-366 |  | 0.963 | 0.967 | 1.01 | 0.94 |  | 0.392 | 0.706 | 0.52 | 0.512 | 0.115 | 0.0576 | 0.0642 | 0.0443 | 0.0501 | 1.06 | 1.05 | 0.326 | 0.0968 | 
4 | PC-14 | 1 | 0.967 | 0.998 | 0.912 | 0.931 | 0.924 | 0.982 | 0.959 | 0.922 | 0.948 | 0.597 | 0.637 | 0.5 | 0.568 | 0.174 | 0.964 | 0.861 | 0.979 | 0.94 | 0.775
5 | SW 1573 | 0.921 | 1.19 | 0.829 | 0.451 | 0.503 | 0.669 | 0.831 | 0.858 | 0.586 | 0.529 | 0.168 | 0.174 | 0.154 | 0.197 | 0.146 | 1.1 | 0.817 | 0.466 | 0.339 | 0.98
6 | COR-L 105 | 1.02 | 0.943 | 0.9 | 0.62 | 0.7 | 1.05 | 1.04 | 0.955 | 0.557 | 0.433 | 0.349 | 0.334 | 0.339 | 0.36 | 0.244 | 0.71 | 0.74 | 0.41 | 0.256 | 0.787
7 | NCI-H322M | 0.92 | 0.898 | 0.905 | 0.717 | 0.562 | 0.986 | 0.913 | 0.982 | 0.974 | 0.952 | 0.498 | 0.477 | 0.48 | 0.421 | 0.412 | 1.21 | 1.28 | 1.27 | 1.18 | 1.45
8 | PC-3 [JPC-3] | 1.05 | 1.06 | 1.05 | 0.97 | 1.06 | 1.01 | 0.992 | 0.94 | 0.907 | 0.901 |  | 0.891 | 0.889 | 0.837 | 0.613 | 0.926 | 0.863 | 0.79 | 0.8 | 0.81
